Patent US20090298820A1, “3-SUBSTITUTED-1H-PYRROLO[2,3-B]PYRIDINE AND 3-SUBSTITUTED-1H-PYRROLO[3,2-B]PYRIDINE COMPOUNDS, THEIR USE AS MTOR KINASE AND PI3 KINASE INHIBITORS, AND THEIR SYNTHESES” (Wyeth, priority 2008, published 2009)
pIC50: −log10 of the molar value. Read-outs that look alike come from different tables or passages of the source.

Tests used:
[1] = target: T1, mTOR (Homo sapiens, UniProt P42345); settings: read-out: mTOR complexes / mTOR enzymes IC50; literature value; cited from earlier work
[2] = system: human tumor xenograft models; settings: cited from earlier work
[3] = system: acute lymphoblastic leukemia; settings: NOS/SCID xenograft; cited from earlier work
[4] = target: PI3Kα (Homo sapiens, UniProt P42336); assay: PI3K-alpha fluorescence polarization assay; assay type: biochemical; settings: read-out: PI3Kα Median IC50
PI3Kα, sequence (P42336 whole entry, species assumed): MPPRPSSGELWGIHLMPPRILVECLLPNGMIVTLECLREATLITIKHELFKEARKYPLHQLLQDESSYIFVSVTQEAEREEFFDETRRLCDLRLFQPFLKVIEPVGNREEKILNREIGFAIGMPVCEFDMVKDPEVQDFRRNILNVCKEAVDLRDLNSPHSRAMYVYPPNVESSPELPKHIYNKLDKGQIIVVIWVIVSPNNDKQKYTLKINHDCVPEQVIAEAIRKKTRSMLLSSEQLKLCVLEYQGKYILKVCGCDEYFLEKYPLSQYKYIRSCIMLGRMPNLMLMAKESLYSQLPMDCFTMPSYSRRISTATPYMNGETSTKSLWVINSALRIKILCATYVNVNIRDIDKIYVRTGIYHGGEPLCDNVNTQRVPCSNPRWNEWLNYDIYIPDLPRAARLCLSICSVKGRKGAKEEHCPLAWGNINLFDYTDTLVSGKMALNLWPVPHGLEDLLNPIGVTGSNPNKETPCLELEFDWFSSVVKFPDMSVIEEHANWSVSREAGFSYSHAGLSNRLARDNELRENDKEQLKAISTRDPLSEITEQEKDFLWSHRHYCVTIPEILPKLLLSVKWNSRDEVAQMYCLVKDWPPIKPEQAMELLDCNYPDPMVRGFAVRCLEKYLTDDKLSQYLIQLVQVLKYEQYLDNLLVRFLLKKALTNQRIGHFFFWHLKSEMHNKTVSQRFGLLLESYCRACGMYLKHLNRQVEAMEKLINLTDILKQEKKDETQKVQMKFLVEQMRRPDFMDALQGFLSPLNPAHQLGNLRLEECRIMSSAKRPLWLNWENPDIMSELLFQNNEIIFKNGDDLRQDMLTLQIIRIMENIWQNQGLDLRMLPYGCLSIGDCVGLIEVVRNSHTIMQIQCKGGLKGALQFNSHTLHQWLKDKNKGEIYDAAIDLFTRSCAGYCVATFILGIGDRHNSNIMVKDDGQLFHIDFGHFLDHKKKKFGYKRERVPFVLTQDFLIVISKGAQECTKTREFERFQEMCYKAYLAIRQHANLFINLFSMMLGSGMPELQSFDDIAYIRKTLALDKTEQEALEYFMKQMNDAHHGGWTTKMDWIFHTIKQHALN
PI3Kα, sequence (P27986 whole entry partner, species assumed): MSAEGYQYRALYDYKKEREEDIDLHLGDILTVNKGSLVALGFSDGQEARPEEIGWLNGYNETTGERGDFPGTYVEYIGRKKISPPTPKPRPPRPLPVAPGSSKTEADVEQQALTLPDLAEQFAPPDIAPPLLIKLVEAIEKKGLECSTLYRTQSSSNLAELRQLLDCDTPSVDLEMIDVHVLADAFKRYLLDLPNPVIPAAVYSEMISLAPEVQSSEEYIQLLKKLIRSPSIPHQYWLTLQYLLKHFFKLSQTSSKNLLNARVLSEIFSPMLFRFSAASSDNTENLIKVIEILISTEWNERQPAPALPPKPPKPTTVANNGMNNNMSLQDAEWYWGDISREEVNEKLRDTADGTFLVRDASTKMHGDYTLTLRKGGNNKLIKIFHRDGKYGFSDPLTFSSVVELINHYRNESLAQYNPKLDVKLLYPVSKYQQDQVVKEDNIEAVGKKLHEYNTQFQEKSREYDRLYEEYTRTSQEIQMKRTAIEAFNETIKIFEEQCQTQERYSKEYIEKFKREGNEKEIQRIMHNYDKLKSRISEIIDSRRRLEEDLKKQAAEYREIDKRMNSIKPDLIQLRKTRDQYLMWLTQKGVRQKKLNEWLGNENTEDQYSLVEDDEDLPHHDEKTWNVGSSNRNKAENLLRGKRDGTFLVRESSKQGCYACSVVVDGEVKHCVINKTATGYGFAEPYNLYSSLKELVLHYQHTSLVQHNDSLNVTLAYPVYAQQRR

[5] = target: T1, mTOR; assay: mTOR enzyme assay (DELFIA format, His6-S6K substrate); assay type: biochemical; settings: read-out: mTOR Kinase Median IC50
[6] = target: PI3Kγ (Homo sapiens, UniProt P48736); assay: PI3K-gamma fluorescence polarization assay; assay type: biochemical; settings: read-out: PI3Kγ Median IC50
PI3Kγ, sequence (P48736 whole entry, species assumed): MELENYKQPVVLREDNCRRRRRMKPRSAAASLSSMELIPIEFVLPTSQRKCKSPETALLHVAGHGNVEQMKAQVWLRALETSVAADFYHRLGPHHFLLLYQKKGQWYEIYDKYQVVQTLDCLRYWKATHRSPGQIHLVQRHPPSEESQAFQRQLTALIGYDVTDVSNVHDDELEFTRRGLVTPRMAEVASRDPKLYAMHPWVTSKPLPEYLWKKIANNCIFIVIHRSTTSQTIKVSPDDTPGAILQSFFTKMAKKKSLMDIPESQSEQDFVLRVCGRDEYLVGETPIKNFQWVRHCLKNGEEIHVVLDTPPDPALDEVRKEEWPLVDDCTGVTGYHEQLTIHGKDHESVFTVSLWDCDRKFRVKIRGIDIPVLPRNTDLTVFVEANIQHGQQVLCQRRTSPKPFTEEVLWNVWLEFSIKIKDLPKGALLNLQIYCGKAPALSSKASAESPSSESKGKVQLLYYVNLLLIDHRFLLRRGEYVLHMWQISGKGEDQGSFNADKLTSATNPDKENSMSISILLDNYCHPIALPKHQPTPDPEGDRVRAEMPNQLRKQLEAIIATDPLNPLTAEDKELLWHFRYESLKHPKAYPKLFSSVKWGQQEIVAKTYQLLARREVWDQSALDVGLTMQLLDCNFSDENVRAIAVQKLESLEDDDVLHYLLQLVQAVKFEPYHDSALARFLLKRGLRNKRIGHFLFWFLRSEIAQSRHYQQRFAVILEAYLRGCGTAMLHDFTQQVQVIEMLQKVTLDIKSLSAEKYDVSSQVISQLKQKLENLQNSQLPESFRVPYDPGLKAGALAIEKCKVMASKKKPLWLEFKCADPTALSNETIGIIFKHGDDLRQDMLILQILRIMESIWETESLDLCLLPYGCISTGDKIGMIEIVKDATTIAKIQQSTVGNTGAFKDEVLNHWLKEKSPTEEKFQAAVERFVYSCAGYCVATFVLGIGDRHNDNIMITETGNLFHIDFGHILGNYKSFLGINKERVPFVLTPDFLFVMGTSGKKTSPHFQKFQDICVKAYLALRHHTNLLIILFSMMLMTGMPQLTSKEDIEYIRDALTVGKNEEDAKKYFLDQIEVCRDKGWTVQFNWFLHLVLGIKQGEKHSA

Compound	pIC50 [4]	pIC50 [5]	melting point [°C]	pIC50 [6]	also measured
FC(F)c1nc2ccccc2n1-c1nc(N2CCOCC2)nc(N2CCOCC2)n1 [ZSTK474, 2-(2-difluoromethylbenzoimidazol-1-yl)-4,6-dimorpholino-1,3,5-triazine]	–	–	–	–	pIC50 [1]: < 5.00; tumor growth inhibition ([2]; chronic oral administration, 400 mg/kg, A549, PC-3, WiDr): completely inhibited growth
CO[C@H]1C[C@@H]2CC[C@@H](C)[C@@](O)(O2)C(=O)C(=O)N2CCCC[C@H]2C(=O)O[C@H]([C@H](C)C[C@@H]2CC[C@@H](OC(=O)C(C)(CO)CO)[C@H](OC)C2)CC(=O)[C@H](C)/C=C(\C)[C@@H](O)[C@@H](OC)C(=O)[C@H](C)C[C@H](C)/C=C/C=C/C=C/1C [Torisel]	–	–	–	–	activity in xenograft mouse model [3]: active
Cn1c(=O)n(-c2ccc(C(C)(C)C#N)cc2)c2c3cc(-c4cnc5ccccc5c4)ccc3ncc21 [NVP-BEZ-235, 2-methyl-2-(4-(3-methyl-2-oxo-8-(quinolin-3-yl)-2,3-dihydro-1H-imidazo[4,5-c]quinolin-1-yl)phenyl)propanenitrile]	–	–	–	–	activity against human tumor models ([2]; prostrate (PC-3) and glioblastoma (U-87)): demonstrated activity
Oc1cccc(-c2nc(N3CCOCC3)c3oc4ncccc4c3n2)c1 [PI103, 3-(4-(4-morpholinyl)pyrido[3′,2′:4,5]furo[3,2-d]pyrimidin-2-yl)phenol]	–	–	–	–	activity against human tumor models ([2]; I.P. dosing in mice, U87MG, PC3, MDA-MB-468, MDA-MB-435, HCT 116, SKOV3, IGROV-1): demonstrated activity
Cn1cc(/C=C2\Oc3ccc(NC(=O)NCCCCl)cc3C2=O)c2c(N3CC4CCC(C3)O4)ccnc21 [Compound 240, 1-(3-chloropropyl)-3-[(2Z)-2-{[1-methyl-4-(8-oxa-3-azabicyclo[3.2.1]oct-3-yl)-1H-pyrrolo[2,3-b]pyridin-3-yl]methylene}-3-oxo-2,3-dihydro-1-benzofuran-5-yl]urea]	5.97	6.98	234 to 241	5.66	–
COCC1CN(C(=O)c2ccc(-c3ccnc4c3c(/C=C3\Oc5cccc(O)c5C3=O)cn4C)cc2)CCO1 (stereo not shown) [Compound 310, (2Z)-4-hydroxy-2-{[4-(4-{[2-(methoxymethyl)morpholin-4-yl]carbonyl}phenyl)-1-methyl-1H-pyrrolo[2,3-b]pyridin-3-yl]methylidene}-1-benzofuran-3(2H)-one]	7.14	8.85	222 to 226	6.67	–
